Literature values, collected in publication PMC10011554, “BET inhibitor trotabresib in heavily pretreated patients with solid tumors and diffuse large B-cell lymphomas” (Nature Communications, 2023).
Where two headings read alike, the source gives them in different places.

Tests used:
[1] = tested on: U-2932 (ABC DLBCL); set-up: method as in Report CC-90010-Pharm-1018; conditions: U-2932, Table 2, ref Report CC-90010-Pharm-1018; read-out: absolute IC50, proliferation; cited from earlier work
[2] = tested on: WSU-DLCL2 (GCB DLBCL); set-up: method as in Report CC-90010-Pharm-1018; conditions: WSU-DLCL2, Table 2, ref Report CC-90010-Pharm-1018; read-out: absolute IC50, proliferation; cited from earlier work
[3] = tested on: SU-DHL-4 (GCB DLBCL); set-up: method as in Report CC-90010-Pharm-1018; conditions: SU-DHL-4, Table 2, ref Report CC-90010-Pharm-1018; read-out: absolute IC50, proliferation; cited from earlier work
[4] = tested on: OCI-LY-10 (ABC DLBCL); set-up: method as in Report CC-90010-Pharm-1018; conditions: OCI-LY-10, Table 2, ref Report CC-90010-Pharm-1018; read-out: absolute IC50, proliferation; cited from earlier work
[5] = tested on: OCI-LY-10 (DOX-R); set-up: method as in Report CC-90010-Pharm-1018; conditions: Table 2, ref Report CC-90010-Pharm-1018, read-out: absolute IC50, proliferation; cited from earlier work
[6] = tested on: U-2932 (DOX-R); set-up: method as in Report CC-90010-Pharm-1018; conditions: Table 2, ref Report CC-90010-Pharm-1018, read-out: absolute IC50, proliferation; cited from earlier work
[7] = tested on: SU-DHL-4 (DOX-R); set-up: method as in Report CC-90010-Pharm-1018; conditions: Table 2, ref Report CC-90010-Pharm-1018, read-out: absolute IC50, proliferation; cited from earlier work
[8] = tested on: WSU-DLCL2 (DOX-R); set-up: method as in Report CC-90010-Pharm-1018; conditions: Table 2, ref Report CC-90010-Pharm-1018, read-out: absolute IC50, proliferation; cited from earlier work
[9] = tested on: relapsed or refractory lymphomas; conditions: cited from earlier work
[10] = tested on: basal cell carcinoma; conditions: cited from earlier work
[11] = cited from earlier work
[12] = set-up: method as in Amorim, 2016; conditions: ref Amorim, 2016; cited from earlier work
[13] = tested on: GBM3 GBM PDX; set-up: method as in Unpublished data from Celgene Corporation; conditions: GBM3, TMZ 50 mg/kg IP x 3 Q2 weeks alone, ref Unpublished data from Celgene Corporation; cited from earlier work
[14] = ref ODOMZO European Public Assessment Report

For `COc1cccc2c1C(=O)c1c(O)c3c(c(O)c1C2=O)C[C@@](O)(C(=O)CO)C[C@@H]3O[C@H]1C[C@H](N)[C@H](O)[C@H](C)O1` [Doxorubicin, reference compound], the IC50 [1] is listed as 20 nM, the IC50 [2] is listed as 10 nM and the IC50 [3] is listed as ~10 nM. The IC50 [4] was 41 nM, the IC50 [5] was 3660 nM and the IC50 [6] was 1870 nM. For the same compound, the IC50 [7] was 3570 nM and the IC50 [8] was 3270 nM.
In the case of `Cc1noc2c1-c1ccccc1C(c1ccc(Cl)cc1)=N[C@H]2CC(N)=O` [CPI-0610], the objective responses ([9]; out of 64 relapsed or refractory lymphomas, ref Blum, 2018) is given as 5 patients.
For `Cc1sc2c(c1C)C(c1ccc(Cl)cc1)=N[C@@H](CC(=O)NCCCN1CCN(C)CC1)c1nnc(C)n1-2` [RG6146], the ORR ([9]; relapsed/refractory MYC-expressing DLBCL patients, ref Caimi, 2017) is listed as 11%.
For `Cc1c(C(=O)Nc2ccc(N3C[C@@H](C)O[C@@H](C)C3)nc2)cccc1-c1ccc(OC(F)(F)F)cc1` [sonidegib], the “independently reviewed response rate” value ([10]; locally advanced BCC, ref Migden, 2015a) is listed as 58%, the “LaBCC with investigator-assessed responses lasting at least six months” value ([10]; ref Migden, 2015a) is listed as 39% and the “subjects discontinued for adverse reactions” value [11, 14] is listed as 28%. The “subjects with dose adjustments for adverse reactions” value [11, 14] was 32%.
In the case of `Cc1sc2c(c1C)C(c1ccc(Cl)cc1)=N[C@@H](CC(=O)Nc1ccc(O)cc1)c1nnc(C)n1-2` [OTX-015], the “Grade 3-4 thrombocytopenia” value [12] is given as 58%, the “median time to thrombocytopenia nadir (Grade 4) from starting treatment” value [12] is given as 18 days and the toxic effect anaemia [12] is given as 91%. The toxic effect diarrhea [12] was 47%, the toxic effect fatigue [12] was 27% and the toxic effect nausea [12] was 24%. The toxic effect neutropenia [12] was 51% and the toxic effect thrombocytopenia [12] was 96%.
In the case of `Cn1nnc2c(C(N)=O)ncn2c1=O` [TMZ, temozolomide, reference compound], the TGI [13] is listed as 3%.
In the case of `CS(=O)(=O)c1ccc(C(=O)Nc2ccc(Cl)c(-c3ccccn3)c2)c(Cl)c1` [vismodegib], the response rate ([10]; locally advanced BCC, ref ERIVEDGE European Public Assessment Report) is given as 42.9%, the “independently reviewed response rate” value ([10]; metastatic BCC, ref ERIVEDGE European Public Assessment Report) is given as 30.3% and the “median duration of response” value ([10]; ref ERIVEDGE European Public Assessment Report) is given as 7.6 months. For the same compound, the “subjects who withdrew from treatment due to adverse events” value ([11]; at least 12 months follow up, ref Bassett-Seguin, 2015) was 36%.
